How the values were obtained:
[1] = Cmax in Sprague-Dawley rat at 10 mg/kg, ip by LC-MS analysis; assay type: ADME, organism-based; set-up: dose 10 mg/kg, route intraperitoneal; conditions: in vivo
Homo sapiens = organism: Homo sapiens; assay: Selectivity ratio of IC50 for recombinant human meprin alpha expressed in insect cells to IC50 for recombinant human meprin beta expressed in yeast
[2] = Volume of distribution at steady state in Sprague-Dawley rat at 6 mg/kg, iv by LC-MS analysis; assay type: ADME, organism-based; conditions: in vivo, read-out: Vdss
ADAM10 = molecular target: T1, ADAM10 (Homo sapiens, UniProt O14672); assay: Inhibition of human ADAM10 assessed as residual activity using Abz-LANAVRSSSR-(DapDnp)-AR-NH2 as substrate at 200 uM by fluorescence assay relative to control; conditions: human ADAM10 enzyme, probe Abz-LANAVRSSSR-(DapDnp)-AR-NH2, read-out: Activity
T1 sequence (O14672 whole entry): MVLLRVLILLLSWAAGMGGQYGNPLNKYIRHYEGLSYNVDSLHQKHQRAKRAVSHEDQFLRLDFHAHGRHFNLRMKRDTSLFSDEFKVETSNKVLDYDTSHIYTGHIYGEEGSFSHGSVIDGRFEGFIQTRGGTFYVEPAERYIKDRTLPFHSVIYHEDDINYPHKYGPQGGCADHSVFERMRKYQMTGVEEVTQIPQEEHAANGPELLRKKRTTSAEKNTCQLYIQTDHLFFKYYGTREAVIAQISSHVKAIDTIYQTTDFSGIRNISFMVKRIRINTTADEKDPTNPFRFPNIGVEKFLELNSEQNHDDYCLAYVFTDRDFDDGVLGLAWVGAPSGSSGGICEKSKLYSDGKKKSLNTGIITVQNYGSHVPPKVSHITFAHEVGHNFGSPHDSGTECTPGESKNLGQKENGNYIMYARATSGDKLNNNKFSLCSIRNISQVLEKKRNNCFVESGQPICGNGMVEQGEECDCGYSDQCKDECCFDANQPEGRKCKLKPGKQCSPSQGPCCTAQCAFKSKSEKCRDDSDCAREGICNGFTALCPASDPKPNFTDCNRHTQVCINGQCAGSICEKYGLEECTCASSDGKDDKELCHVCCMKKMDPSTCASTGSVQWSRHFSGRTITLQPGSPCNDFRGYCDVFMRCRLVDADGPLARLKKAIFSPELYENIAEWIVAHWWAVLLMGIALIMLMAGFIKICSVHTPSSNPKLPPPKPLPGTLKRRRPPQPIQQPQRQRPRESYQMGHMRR

BMP1 = molecular target: T2, BMP1 (Homo sapiens, UniProt P13497); assay: Inhibition of human BMP1 expressed in Escherichia coli assessed as residual activity using Abz-YVADAPK(Dnp)G-OH as substrate at 200 uM by fluorescence assay relative to control; conditions: probe Abz-YVADAPK(Dnp)G-OH, read-out: Activity
T2 sequence (P13497 whole entry): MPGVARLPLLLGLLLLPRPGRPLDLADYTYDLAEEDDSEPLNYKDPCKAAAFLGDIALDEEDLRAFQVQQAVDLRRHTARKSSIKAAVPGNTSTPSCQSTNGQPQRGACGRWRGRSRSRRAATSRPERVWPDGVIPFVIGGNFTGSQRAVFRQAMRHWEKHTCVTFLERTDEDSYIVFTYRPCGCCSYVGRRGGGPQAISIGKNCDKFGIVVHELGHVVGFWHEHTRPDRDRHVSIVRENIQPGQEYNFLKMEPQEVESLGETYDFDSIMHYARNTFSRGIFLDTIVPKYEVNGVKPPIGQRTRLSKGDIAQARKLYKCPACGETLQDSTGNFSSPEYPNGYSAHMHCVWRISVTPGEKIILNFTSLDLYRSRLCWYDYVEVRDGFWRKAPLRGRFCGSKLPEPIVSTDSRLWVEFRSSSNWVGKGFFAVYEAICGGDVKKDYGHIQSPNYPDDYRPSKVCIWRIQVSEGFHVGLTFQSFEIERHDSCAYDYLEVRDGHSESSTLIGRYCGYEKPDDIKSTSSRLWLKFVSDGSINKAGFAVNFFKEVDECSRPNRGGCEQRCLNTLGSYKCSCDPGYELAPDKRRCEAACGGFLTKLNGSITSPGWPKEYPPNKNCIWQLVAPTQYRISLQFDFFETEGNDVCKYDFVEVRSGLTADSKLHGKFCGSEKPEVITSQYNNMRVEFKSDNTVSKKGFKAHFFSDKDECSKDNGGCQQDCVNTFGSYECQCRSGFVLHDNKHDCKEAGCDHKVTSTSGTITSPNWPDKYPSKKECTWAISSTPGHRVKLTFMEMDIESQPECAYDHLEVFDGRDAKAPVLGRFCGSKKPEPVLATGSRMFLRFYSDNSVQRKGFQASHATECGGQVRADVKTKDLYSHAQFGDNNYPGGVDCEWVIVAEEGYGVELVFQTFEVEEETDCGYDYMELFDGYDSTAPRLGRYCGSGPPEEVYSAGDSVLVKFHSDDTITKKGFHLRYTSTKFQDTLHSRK

Compound `O=C(CN(Cc1cccc(C(=O)O)c1)Cc1cccc(C(=O)O)c1)NO` has a Cmax [1] of 6460 ng/mL, a Ratio IC50 (Homo sapiens) of 300 and a Vd [2] of 0.42 L/kg. For the same compound, the activity at 200 µM (ADAM10) was 93% and the activity at 200 µM (BMP1) was 87%.
